# Assays:
# [1] = target: T1, Helicobacter pylori urease (HPU) (Helicobacter pylori, UniProt P69996); assay: urease activity assay on desalted crude bacterial extract (modified Berthelot); format: biochemical
# T1 construct: gene ureB; crude urease solution from H. pylori ATCC 43504
# [2] = target: jack bean urease (JBU) (Canavalia ensiformis, UniProt P07374); assay: urease activity assay (modified Berthelot ammonia determination), slow-binding progress curves; format: biochemical
# Chain of jack bean urease (JBU) (P07374 whole entry): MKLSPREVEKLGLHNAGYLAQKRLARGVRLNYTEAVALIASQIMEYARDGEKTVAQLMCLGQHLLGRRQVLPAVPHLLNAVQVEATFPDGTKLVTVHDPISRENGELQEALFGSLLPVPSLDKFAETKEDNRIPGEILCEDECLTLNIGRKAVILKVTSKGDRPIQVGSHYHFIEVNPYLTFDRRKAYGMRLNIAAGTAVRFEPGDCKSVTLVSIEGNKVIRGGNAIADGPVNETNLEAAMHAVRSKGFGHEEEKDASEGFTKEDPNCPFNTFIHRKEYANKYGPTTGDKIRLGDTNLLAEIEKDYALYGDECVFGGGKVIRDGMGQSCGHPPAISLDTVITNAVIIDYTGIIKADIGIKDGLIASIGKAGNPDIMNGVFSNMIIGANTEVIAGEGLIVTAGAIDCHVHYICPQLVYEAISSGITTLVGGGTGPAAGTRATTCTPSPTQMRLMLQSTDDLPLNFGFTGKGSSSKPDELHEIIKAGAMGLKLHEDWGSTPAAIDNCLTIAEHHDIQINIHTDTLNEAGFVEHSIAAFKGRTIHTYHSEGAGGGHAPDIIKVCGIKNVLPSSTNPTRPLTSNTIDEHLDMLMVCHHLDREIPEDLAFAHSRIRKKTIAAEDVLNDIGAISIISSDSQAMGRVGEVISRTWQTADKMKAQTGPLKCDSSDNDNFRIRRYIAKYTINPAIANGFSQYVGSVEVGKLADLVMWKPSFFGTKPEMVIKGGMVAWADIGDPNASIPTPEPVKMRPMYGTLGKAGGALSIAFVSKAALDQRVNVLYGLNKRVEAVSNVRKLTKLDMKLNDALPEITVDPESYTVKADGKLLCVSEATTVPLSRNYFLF
# T1 sequence (P69996 whole entry): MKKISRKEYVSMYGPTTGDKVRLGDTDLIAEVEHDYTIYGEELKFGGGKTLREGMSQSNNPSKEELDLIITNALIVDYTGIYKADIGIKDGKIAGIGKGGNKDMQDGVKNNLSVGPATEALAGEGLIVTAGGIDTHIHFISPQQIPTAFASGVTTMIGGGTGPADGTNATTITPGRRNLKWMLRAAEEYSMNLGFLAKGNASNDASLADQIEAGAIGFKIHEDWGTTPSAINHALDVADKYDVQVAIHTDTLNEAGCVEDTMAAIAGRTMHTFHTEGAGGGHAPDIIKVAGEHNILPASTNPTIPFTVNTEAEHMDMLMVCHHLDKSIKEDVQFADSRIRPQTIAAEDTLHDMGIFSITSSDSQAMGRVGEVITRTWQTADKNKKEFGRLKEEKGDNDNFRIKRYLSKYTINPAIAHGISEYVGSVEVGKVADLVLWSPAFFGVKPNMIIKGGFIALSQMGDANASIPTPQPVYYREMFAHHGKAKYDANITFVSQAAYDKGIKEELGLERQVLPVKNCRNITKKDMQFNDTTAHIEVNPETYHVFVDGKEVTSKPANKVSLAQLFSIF
structure (smiles),measurement,setting,value
"C=C1CC[C@@H]2[C@](C)(CO)[C@H](O)CC[C@@]2(C)[C@@H]1CC(C1=CCOC1=O)S(=O)(=O)O (some centres unmarked) [ASB, Andrographolide sodium bisulphite]",IC50,[1],3.17 ± 0.34 mM
same,IC50,[2],3.28 ± 0.13 mM

# Reference: publication PMC4504079, “Andrographolide sodium bisulphite-induced inactivation of urease: inhibitory potency, kinetics and mechanism” (BMC Complementary and Alternative Medicine, 2015)
